Our source for the IC50 values is patent publication US11679108B2, “Aromatic heterocyclic compound, and pharmaceutical composition and use thereof” (GUANGZHOU HENOVCOM BIOSCIENCE CO., LTD., priority 2018, dated 2023).

The IC50 is the concentration needed to halve the response being measured.

The target of one test is T1, ATX in human plasma (Homo sapiens, UniProt Q13822).
T1 construct: blank plasma was derived from at least 6 individual people; from tissue; host or cells: human plasma (pooled from at least 6 individuals)
Kind of test: Analysis in vitro: detection of LPA in human plasma for screening activity (LPA 18:2 by LC/MS/MS). Particulars: incubated 2 hours at 37° C., LPA 18:2 detected by LC/MS/MS. The test is classed as biochemical. The text has this: Analysis In Vitro: Detection of LPA in Human Plasma for Screening Activity
Principle: LPC in plasma being used as a substrate, the produced LPA 18:2 (LPA 17:0 as an internal standard) is detected by LC/MS/MS quantitative analysis. At different concentrations of the compounds to be tested, the percentage of residual activity is obtained by the ratio of the production of LPA18:2 to that in the absence of the compounds to be tested, thereby calculating IC50 values.
Experiment procedures: blank plasma was derived from at least 6 individual people. The compounds to be tested were diluted from stock solution in 3-fold dilution gradient, to produce 8 concentrations of working solution (with zero) in series. 10 μL of the melting blank plasma samples were taken and iced methanol solution containing internal standard (LPA 17:0) was added to it, so that the mixture directedly performed protein precipitation, which served as a system control sample. 2 μL of the working solution in different concentration was taken and 198 μL of blank human plasma was added, which was incubated with a concentration of 0 to 10 μM. The samples were placed at an incubater containing 5% CO2 at 37° C., and incubated for 2 hours. When the incubation was completed, 10 μL of plasma sample was taken and appropriate volume of iced methanol solution containing internal standard (LPA 17:0) was added into it, so that the mixture directedly performed protein precipitation. The precipitation was centrifuged to take supernatant. LPA 18:2 was detected by LC/MS/MS and IC50 values were analyzed and calculated by software, seeing Table 2.

The target in another test is ATX (Homo sapiens, UniProt Q13822). Kind of test: Analysis in vitro: LPC was used as substrate for screening enzyme activity (Amplex Red fluorescence). As to conditions: inhibitory activity against ATX, with LPC as substrate. The test is classed as biochemical. From the text: Analysis In Vitro: LPC was Used as Substrate for Screening Enzyme Activity
Principle: Lysophosphatidylcholine (LPC) as substrate is hydrolyzed by using the activity of lysoPLD enzyme, to produce lysophosphatidic acid (LPA) and choline, which is oxidized to produce H2O2 under the action of choline oxidase. In presence of horse radish peroxidase (HPR), Amplex Red reagent is reacted with H2O2 in a quantitative chemistry ratio of 1 to 1, to produce strong fluorescence products, which are detected by a fluorescent quantitative test.
Experimental procedures: the compounds to be tested were dissolved in DMSO, to prepare 10 mM of stock solution, which was diluted in a gradient concentration of 3 times with DMSO from 10 mM, to generate 10 concentration gradients. The reaction buffer solution was used for preparing a mixed solution 1 of 2 ng/μl ATX, 2 U/ml HRP and 0.2 U/ml choline oxidase in a final concentration. 20 μl of the above mixed solution 1 was added to each hole of an experiment board, […]. The compounds diluted with DMSO were transferred into an experiment board with Echo550. The reaction buffer solution was used for preparing a mixed solution 2 of […] LPC and 400 μM Amplex Red in a final concentration. 20 μl of the above mixed solution 2 was added to each hole of the experiment board. After addition, the experiment board was shook for 30 seconds on a shaker, and incubated for 30 minutes. Envision was used to read the fluorescence signals with an exciting light at 530 nm and emitted light at 590 nm. Inhibition ratio of the compounds to enzyme reaction was calculated according to the ratio of fluorescence, and IC50 of the compounds was analyzed and calculated by software, seeing Table 1.

In turn, `CCc1nc2sc(N3CC(N(C)CC(=O)N4CC(O)C4)C3)nn2c1N(C)c1nc(-c2ccc(F)cc2)c(C#N)s1` [Example 63] gave an IC50 against ATX in human plasma of 0.01 to 100 nM.
On the same count and under the same terms, the same measure for `CCc1nc2sc(N3CCC(N(C)CC(=O)O)C3)nn2c1N(C)c1nc(-c2ccc(F)cc2)c(C#N)s1` (stereo not shown) [Example 49, 2-{[1-(5-((5-cyano-4-(4-fluorophenyl)thiazol-2-yl)(methyl)amino)-6-ethylimidazo[2,1-b][1,3,4]thiadiazol-2-yl)pyrrolidin-3-yl](methyl)amino}acetic acid]: 500 to 1000 nM.
The same measure, in the same setting: then `CCc1nc2sc(N3CCN(CC(=O)N4CC(O)C4)C4(CC4)C3)nn2c1N(C)c1nc(-c2ccc(F)cc2)c(C#N)s1` [Example 71, 2-{[6-ethyl-2-(4-(2-(3-hydroxyazetidin-1-yl)-2-oxoethyl)-4,7-diazaspiro[2.5]octan-7-yl)imidazo[2,1-b][1,3,4]thiadiazol-5-yl](methyl)amino}-4-(4-fluorophenyl)thiazole-5-carbonitrile], with 100 to 500 nM; and `CCc1nc2sc(N3C[C@H](C)N(CC(=O)N4CC(O)C4)[C@@H](C)C3)nn2c1N(C)c1nc(-c2ccc(F)cc2)c(C#N)s1` (relative stereo) [Example 73, trans-2-{[6-ethyl-2-(4-(2-(3-hydroxyazetidin-1-yl)-2-oxoethyl)-3,5-dimethylpiperazin-1-yl)imidazo[2,1-b][1,3,4]thiadiazol-5-yl](methyl)amino}-4-(4-fluorophenyl)thiazole-5-carbonitrile], with 100 to 500 nM; and `CCc1nc2sc(N3CC4CC(C3)N4CC(=O)N3CC(O)C3)nn2c1N(C)c1nc(-c2ccc(F)cc2)c(C#N)s1` [Example 61, 2-{[6-ethyl-2-(6-(2-(3-hydroxyazetidin-1-yl)-2-oxoethyl)-3,6-diazabicyclo[3.1.1]heptan-3-yl)imidazo[2,1-b][1,3,4]thiadiazol-5-yl](methyl)amino}-4-(4-fluorophenyl)thiazole-5-carbonitrile], with 100 to 500 nM.
The same measure, in the same setting: then `CCc1nc2sc(N3CC[C@@H](NCC(=O)N4CC(O)C4)C3)nn2c1N(C)c1nc(-c2ccc(F)cc2)c(C#N)s1` [Example 80, (R)-2-{[6-ethyl-2-(3-((2-(3-hydroxyazetidin-1-yl)-2-oxoethyl)amino)pyrrolidin-1-yl)imidazo[2,1-b][1,3,4]thiadiazol-5-yl](methyl)amino}-4-(4-fluorophenyl)thiazol-5-carbonitrile], with 0.01 to 100 nM.
For `CCc1nc2sc(N3CCC(N(C)C(=O)N4CC(O)C4)C3)nn2c1N(C)c1nc(-c2ccc(F)cc2)c(C#N)s1` (stereo not shown) [Example 30, N-{1-[5-((5-cyano-4-(4-fluorophenyl)thiazol-2-yl)(methyl)amino)-6-ethylimidazo[2,1-b][1,3,4]thiadiazol-2-yl}pyrrolidin-3-yl}-3-hydroxy-N-methylazetidine-1-carboxamide], the IC50 against ATX is 0.01 to 100 nM.
On the same count and under the same terms, the same measure for `CCc1nc2sc(N3CCC(N(C)CC(=O)N4CC(C(=O)O)C4)C3)nn2c1N(C)c1nc(-c2ccc(F)cc2)c(C#N)s1` (stereo not shown) [Example 35, 1-{2-[(1-(5-((5-cyano-4-(4-fluorophenyl)thiazol-2-yl)(methyl)amino)-6-ethylimidazo[2,1-b][1,3,4]thiadiazol-2-yl)pyrrolidin-3-yl)(methyl)amino]acetyl}azetidine-3-carboxylic acid]: 0.01 to 100 nM.
The same measure, in the same setting: the same measure for `CCc1nc2sc(N3CC[C@@H](N(CC(=O)N4CC(O)C4)CC4CC4)C3)nn2c1N(C)c1nc(-c2ccc(F)cc2)c(C#N)s1` [Example 90]: no less than 1000 nM; for `CCc1nc2sc(N3CC[C@@H](N(C=O)CC(=O)N4CC(O)C4)C3)nn2c1N(C)c1nc(-c2ccc(F)cc2)c(C#N)s1` [Example 91, (R)—N-{1-[5-((5-cyano-4-(4-fluorophenyl)thiazol-2-yl)(methyl)amino)-6-ethylimidazo[2,1-b][1,3,4]thiadiazol-2-yl]pyrrolidin-3-yl}-N-(2-(3-hydroxyazetidin-1-yl)-2-oxoethyl)formamide]: 0.01 to 100 nM.
On the same count and under the same terms, then `CCc1nc2sc(N3CC[C@@H](N(C)CC(=O)N4CC(F)C4)C3)nn2c1N(C)c1nc(-c2ccc(F)cc2)c(C#N)s1` [Example 39, (R)-2-{[6-ethyl-2-(3-((2-(3-fluoroazetidin-1-yl)-2-oxoethyl)(methyl)amino)pyrrolidin-1-yl)imidazo[2,1-b][1,3,4]thiadiazol-5-yl](methyl)amino}-4-(4-fluorophenyl)thiazole-5-carbonitrile], with 100 to 500 nM; and `CCc1nc2sc(N3CC4(CN(CC(=O)N5CC(O)C5)C4)C3)nn2c1N(C)c1nc(-c2ccc(F)cc2)c(C#N)s1` [Example 6], with 100 to 500 nM.
On to `CN(c1nc(-c2ccc(F)cc2)c(C#N)s1)c1c(CCOCc2ccccc2)nc2sc(N3CC[C@@H](N(C)CC(=O)N4CC(O)C4)C3)nn12` [Example 86], for which the half-inhibitory concentration (IC50) against ATX was no less than 1000 nM.
Still for that read-out and setting: the same measure for `CCc1nc2sc(N3CCN(S(C)(=O)=O)CC3)nn2c1N(C)c1nc(-c2ccc(F)cc2)c(C#N)s1` [Example 1]: no less than 1000 nM; for `CCc1nc2sc(N3CCC(N(C)CC(=O)N4CCOCC4)C3)nn2c1N(C)c1nc(-c2ccc(F)cc2)c(C#N)s1` (stereo not shown) [Example 34, 2-{[6-ethyl-2-(3-(methyl(2-mophlin-2-oxoethyl)amino)pyrrolidin-1-yl)imidazo[2,1-b][1,3,4]thiadiazol-5-yl](methyl)amino}-4-(4-fluorophenyl)thiazole-5-carbonitrile]: 0.01 to 100 nM; for `COCCc1nc2sc(N3CC[C@@H](N(C)CC(=O)N4CC(O)C4)C3)nn2c1N(C)c1nc(-c2ccc(F)cc2)c(C#N)s1` [Example 88, (R)-4-(4-fluorophenyl)-2-{[2-(3-((2-(3-hydroxyazetidin-1-yl)-2-oxoethyl)(methyl)amino)pyrrolidin-1-yl)-6-(2-methoxyethyl)imidazo[2,1-b][1,3,4]thiadiazol-5-yl](methyl)amino}thiazole-5-carbonitrile]: 100 to 500 nM.
On the same count and under the same terms, the same measure for `CCc1nc2sc(N3CCC(N(C)S(=O)(=O)C4CC4)C3)nn2c1N(C)c1nc(-c2ccc(F)cc2)c(C#N)s1` (stereo not shown) [Example 28, N-{1-[5-((5-cyano-4-(4-fluorophenyl)thiazol-2-yl)(methyl)amino)-6-ethylimidazo[2,1-b][1,3,4]thiadiazol-2-yl}pyrrolidin-3-yl}-N-methylcyclopropanesulfonamide]: 100 to 500 nM.
Still for that read-out and setting: the same measure for `CCc1nc2sc(N3CCN(CC(=O)N4CC(O)C4)[C@H](C(=O)OC)C3)nn2c1N(C)c1nc(-c2ccc(F)cc2)c(C#N)s1` [Example 81, methyl (S)-4-{5-[(5-cyano-4-(4-fluorophenyl)thiazol-2-yl)(methyl)amino]-6-ethylimidazo[2,1-b][1,3,4]thiadiazol-2-yl}-1-(2-(3-hydroxyazetidin-1-yl)-2-oxoethyl)piperazine-2-carboxylate]: 0.01 to 100 nM; for `CCc1nc2sc(N3CCC4(CC3)CN(S(C)(=O)=O)C4)nn2c1N(C)c1nc(-c2ccc(F)cc2)c(C#N)s1` [Example 3, 2-{[6-ethyl-2-(4-(methylsulfonyl)-2,7-diazaspiro[3.5]nonan-7-yl)imidazo[2,1-b][1,3,4]thiadiazol-5-yl](methyl)amino}-4-(4-fluorophenyl)thiazole-5-carbonitrile]: 500 to 1000 nM.
